Laboratory results: patent US8557797B2, “Triazolopyridine derivatives and their therapeutic use” (Chiesi Farmaceutici S.p.A., priority 2009, dated 2013)

Assays:
p38α = target: T1, p38α (Homo sapiens, UniProt Q16539); experiment: p38 Kinase Assay (ATF-2 phosphorylation ELISA); format: biochemical; settings: 2 h pre-incubation, ATP 250 μM, 1% DMSO; read-out: p38α inhibition (IC50 values)
T1 construct: purchased Calbiochem 559324; host or cells: E. coli
Description: Human recombinant p38 enzyme expressed in E. coli and activated by incubation with MKK6 enzyme (Calbiochem #559324) is used as source of enzyme activity.
The assay is carried in high binding, clear, flat bottom 96 well assay plates which have been coated with recombinant ATF-2 (Biosource #PHF0043). Test compounds are incubated with p38 kinase for 2 h prior to initiating the kinase assay by the addition of ATP to obtain an assay concentration of 250 μM. Phosphorylation of ATF-2 is detected and quantified using an ELISA. This consists of sequential incubation in the presence of anti-phospho-ATF2, biotinylated anti-IgG and streptavidin-HRP. Incubation with an HRP chromogenic substrate (TMB) results in absorbance that is proportional to the amount of phosphorylated substrate produced. Absorbance is detected using a multiwell plate reader.
Compounds are diluted in DMSO prior to addition to assay buffer, the final DMSO concentration in the assay being 1%.
The IC50 is defined as the concentration at which a given compound achieves 50% inhibition of control.

[1] = test system: TNFα release from LPS activated THP-1 cells or PBMC's; experiment: p38 Functional Assay (TNFα release after LPS); format: cell-based; settings: Homo sapiens, 1 h pre-treatment, 0.3% DMSO, read-out: EC50 (inhibition of TNFα release)
Description: Inhibition of cellular p38 depresses the release of TNFα, a functional response which is quantified by measurement of the amount of TNFα in the supernatants of LPS activated THP-1 cells (an immortalised monocytic cell line) or peripheral blood mononuclear cells (PBMC's) isolated from freshly drawn human blood.
Cells seeded in 96 well plates are pre-treated by the addition of p38 inhibitors for 1 h followed by addition of lipopolysaccharide (LPS) to activate cytokine production and release. The amount of TNFα released into the cell supernatants is quantified using an R&D Systems enzyme linked immunosorbant assay (ELISA) kit (product DY210) following the manufacturers instructions.
Compounds are diluted in DMSO prior to addition, the final DMSO concentration in the assay being 0.3%. The EC50 is defined as the concentration at which a given compound achieves 50% inhibition of the control.

T1 sequence (Q16539 whole entry): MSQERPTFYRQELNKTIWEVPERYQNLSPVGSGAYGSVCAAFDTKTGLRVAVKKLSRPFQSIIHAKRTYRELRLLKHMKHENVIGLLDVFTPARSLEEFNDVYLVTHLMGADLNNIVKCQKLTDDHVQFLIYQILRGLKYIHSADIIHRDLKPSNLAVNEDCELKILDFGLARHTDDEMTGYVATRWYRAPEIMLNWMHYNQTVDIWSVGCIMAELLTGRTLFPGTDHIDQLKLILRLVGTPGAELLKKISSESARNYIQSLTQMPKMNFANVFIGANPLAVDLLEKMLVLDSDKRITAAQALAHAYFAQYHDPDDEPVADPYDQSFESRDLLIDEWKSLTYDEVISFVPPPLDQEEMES

Row | Structure (SMILES) | IC50 (p38α) | EC50 [1]
1 | Cc1ccc(-n2nc(C(C)(C)C)cc2NC(=O)Nc2ccc(Sc3ccc4nnc(-c5cccc(OCc6ccccc6)c5)n4c3)cc2)cc1 [Example 11] | 0.5 to 2 µM | 0.1 to 0.5 µM
2 | Cc1ccc(-n2nc(C(C)(C)C)cc2NC(=O)c2cccc(Sc3ccc4nnc(C(C)C)n4c3)c2)cc1 [Example 28] | 0.01 to 0.1 µM | 
3 | Cc1ccc(-n2nc(C(C)(C)C)cc2NC(=O)Cc2ccc(Sc3ccc4nnc(C(C)C)n4c3)cc2)cc1 [Example 6] | < 0.01 µM | 0.01 to 0.1 µM
4 | CC(C)c1nnc2ccc(Sc3ccc(CC(=O)Nc4cc(C(C)(C)C)nn4-c4ccc(OCCN5CCOCC5)cc4)cc3)cn12 [Example 19, N-{5-tert-Butyl-2-[4-(2-morpholin-4-yl-ethoxy)-phenyl]-2H-pyrazol-3-yl}-2-[4-(3-isopropyl-[1,2,4]triazolo[4,3-a]pyridin-6-ylsulfanyl)-phenyl]-acetamide] | 0.5 to 2 µM | 0.5 to 7 µM
5 | Cc1ccc(-n2nc(C(C)(C)C)cc2NC(=O)Nc2ccc(Sc3ccc4nnc(-c5cccc(OCCN6CCOCC6)c5)n4c3)nc2)cc1 [Example 12, 1-(5-tert-Butyl-2-p-tolyl-2H-pyrazol-3-yl)-3-(6-{3-[3-(2-morpholin-4-yl-ethoxy)-phenyl]-[1,2,4]triazolo[4,3-a]pyridin-6-ylsulfanyl}-pyridin-3-yl)-urea] | 0.01 to 0.1 µM | 0.01 to 0.1 µM
6 | Cc1ccc(-n2nc(C(C)(C)C)cc2NC(=O)Cc2ccc(Oc3ccc4nnc(C(C)C)n4c3)cc2)cc1 [Example 23, N-(5-tert-Butyl-2-p-tolyl-2H-pyrazol-3-yl)-2-[4-(3-isopropyl-[1,2,4]triazolo[4,3-a]pyridin-6-yloxy)-phenyl]-acetamide] | < 0.01 µM | < 0.01 µM
7 | O=C(NCC1CC1)c1cccc(Sc2ccc3nnc(-c4cccc(OCCN5CCOCC5)c4)n3c2)c1 [Example 1, N-Cyclopropylmethyl-3-{3-[3-(2-morpholin-4-yl-ethoxy)-phenyl]-[1,2,4]triazolo[4,3-a]pyridin-6-ylsulfanyl}-benzamide] | 0.5 to 2 µM | 0.5 to 7 µM
8 | Cc1ccc(-n2nc(C(C)(C)C)cc2NC(=O)Cc2ccc(Sc3ccc4nnc(-c5cccc(OCc6ccccc6)c5)n4c3)cc2)cc1 [Example 8] | 0.01 to 0.1 µM | 0.1 to 0.5 µM
9 | O=C(Nc1ccnc(N2CCOCC2)c1)c1cccc(Sc2ccc3nnc(-c4cccc(OCCN5CCOCC5)c4)n3c2)c1 [Example 3] | 0.1 to 0.5 µM | 0.01 to 0.1 µM
10 | Cc1ccc(-n2nc(C(C)(C)C)cc2NC(=O)Nc2ccc(Sc3ccc4nnc(-c5cccc(OCCN6CCOCC6)c5)n4c3)cn2)cc1 [Example 13, 1-(5-tert-Butyl-2-p-tolyl-2H-pyrazol-3-yl)-3-(5-{3-[3-(2-morpholin-4-yl-ethoxy)-phenyl]-[1,2,4]triazolo[4,3-a]pyridin-6-ylsulfanyl}-pyridin-2-yl)-urea] | 0.1 to 0.5 µM | 0.01 to 0.1 µM
11 | Cc1ccc(-n2nc(C(C)(C)C)cc2NC(=O)C(C)c2ccc(Sc3ccc4nnc(C(C)C)n4c3)cc2)cc1 (centres unmarked) [Example 24, N-(5-tert-Butyl-2-p-tolyl-2H-pyrazol-3-yl)-2-[4-(3-isopropyl-[1,2,4]triazolo[4,3-a]pyridin-6-ylsulfanyl)-phenyl]-propionamide] | 0.1 to 0.5 µM | 
12 | CC(C)c1nnc2ccc(Sc3ccc(CC(=O)Nc4cc(C(C)(C)C)nn4-c4ccc(O)cc4)cc3)cn12 [Example 20, N-[5-tert-Butyl-2-(4-hydroxy-phenyl)-2H-pyrazol-3-yl]-2-[4-(3-isopropyl-[1,2,4]triazolo[4,3-a]pyridin-6-ylsulfanyl)-phenyl]-acetamide] | 0.01 to 0.1 µM | 0.01 to 0.1 µM
13 | CC(C)c1nnc2ccc(Sc3ccc(CC(=O)Nc4cc(C(C)(C)C)nn4-c4cccc(OCCc5ccncc5)c4)cc3)cn12 [Example 27, N-{5-tert-Butyl-2-[3-(2-pyridin-4-yl-ethoxy)-phenyl]-2H-pyrazol-3-yl}-2-[4-(3-isopropyl-[1,2,4]triazolo[4,3-a]pyridin-6-ylsulfanyl)-phenyl]-acetamide] | 0.01 to 0.1 µM | 
14 | O=C(Nc1cccc(N2CCOCC2)c1)c1cccc(Sc2ccc3nnc(-c4cccc(OCCN5CCOCC5)c4)n3c2)c1 [Example 2] | 0.1 to 0.5 µM | 0.1 to 0.5 µM
15 | Cc1ccc(-n2nc(C(C)(C)C)cc2NC(=O)Cc2ccc(Sc3ccc4nnc(-c5cccc(O)c5)n4c3)cc2)cc1 [Example 18, N-(5-tert-Butyl-2-p-tolyl-2H-pyrazol-3-yl)-2-{4-[3-(3-hydroxy-phenyl)-[1,2,4]triazolo[4,3-a]pyridin-6-ylsulfanyl]-phenyl}-acetamide] | < 0.01 µM | 0.01 to 0.1 µM

The next lines start with results.

Row | IC50 (p38α) | Structure (SMILES) | EC50 [1]
16 | 0.5 to 2 µM | Cc1ccc(-n2nc(C(C)(C)C)cc2NC(=O)CN2CCC(Oc3ccc4nnc(-c5cccc(OCCN6CCOCC6)c5)n4c3)CC2)cc1 [Example 17, N-(5-tert-Butyl-2-p-tolyl-2H-pyrazol-3-yl)-2-(4-{3-[3-(2-morpholin-4-yl-ethoxy)-phenyl]-[1,2,4]triazolo[4,3-a]pyridin-6-yloxy}-piperidin-1-yl)-acetamide] | 0.5 to 7 µM
17 | 0.1 to 0.5 µM | Cc1ccc(-n2nc(C(C)(C)C)cc2NC(=O)N[C@H]2CC[C@@H](Oc3ccc4nnc(-c5cccc(OCCN6CCOCC6)c5)n4c3)CC2)cc1 [Example 15] | 0.5 to 7 µM
18 | 0.01 to 0.1 µM | Cc1ccc(-n2nc(C(C)(C)C)cc2NC(=O)NC2CCC(Oc3ccc4nnc(-c5ccccn5)n4c3)CC2)cc1 (centres unmarked) [Example 29, 1-(5-tert-Butyl-2-p-tolyl-2H-pyrazol-3-yl)-3-[4-(3-pyridin-2-yl-[1,2,4]triazolo[4,3-a]pyridin-6-yloxy)-cyclohexyl]-urea] | 
19 | 0.01 to 0.1 µM | Cc1ccc(-n2nc(C(C)(C)C)cc2NC(=O)N[C@H]2CC[C@H](Oc3ccc4nnc(-c5cccc(OCCN6CCOCC6)c5)n4c3)CC2)cc1 [Example 14, 1-(5-tert-Butyl-2-p-tolyl-2H-pyrazol-3-yl)-3-(trans-4-{3-[3-(2-morpholin-4-yl-ethoxy)-phenyl]-[1,2,4]triazolo[4,3-a]pyridin-6-yloxy}-cyclohexyl)-urea] | 0.01 to 0.1 µM
20 | 0.01 to 0.1 µM | CC(C)(C)c1cc(NC(=O)N[C@H]2CC[C@H](Oc3ccc4nnc(-c5cccc(OCCN6CCOCC6)c5)n4c3)CC2)n(-c2ccccc2)n1 [Example 16] | 0.5 to 7 µM
21 | 0.01 to 0.1 µM | Cc1ccc(-n2nc(C(C)(C)C)cc2NC(=O)N[C@H]2CC[C@H](Oc3ccc4nnc(C(C)C)n4c3)CC2)cc1 [Example 21, 1-(5-tert-Butyl-2-p-tolyl-2H-pyrazol-3-yl)-3-[4-(3-isopropyl-[1,2,4]triazolo[4,3-a]pyridin-6-yloxy)-cyclohexyl]-urea] | 0.01 to 0.1 µM
22 | < 0.01 µM | Cc1ccc(-n2nc(C(C)(C)C)cc2NC(=O)N[C@H]2CC[C@H](Oc3ccc4nnc(C5CCCC5)n4c3)CC2)cc1 [Example 25, 1-(5-tert-Butyl-2-p-tolyl-2H-pyrazol-3-yl)-3-[4-(3-cyclopentyl-[1,2,4]triazolo[4,3-a]pyridin-6-yloxy)-cyclohexyl]-urea] | 
23 | 0.5 to 2 µM | Cc1ccc(-n2nc(C(C)(C)C)cc2NC(=O)C[C@H]2CC[C@H](Oc3ccc4nnc(C(C)C)n4c3)CC2)cc1 [Example 22, N-(5-tert-Butyl-2-p-tolyl-2H-pyrazol-3-yl)-2-[4-(3-isopropyl-[1,2,4]-triazolo[4,3-a]pyridin-6-yloxy)-cyclohexyl]-acetamide] | 0.5 to 7 µM
